System: GBM cells
Test: Colony formation assay
Assay type: cell-based, human
Conditions: C16 vs SC; 25 uM stated adequate for subsequent experiments; n=6, P < 0.01
Protocol: Cell growth was quantified using the Cell Counting Kit‐8 Assay Kit (Bimake, Houston, TX). Each experiment was repeated at least six times. For the colony formation assay, 800 cells were seeded into each well of a six‐well plate with soft agar (Agarose; Sigma, St. Louis, MO) and maintained in a medium containing 10% FBS for 14 days. The colonies were fixed with methanol and stained with 0.1% crystal violet; the clones containing at least 50 cells were counted using an inverted microscope.
Supplementary Fig. 9 C16 inhibits tumor growth and promotes chemosensitivity in vitro.
B. Colony formation of cells treated with SC or C16 (left) and the accompanying statistical
analysis (right; n=6, Student’s t-test, **P < 0.01).
C. Annexin V staining flow cytometry assay of cells simultaneously treated with Dox with SC or
C16 for 48 h (n=3, Student’s t-test, *P < 0.05, **P < 0.01).
(1 picture or pasted object on this page, not shown here)

## C16: peptide spanning SHF amino acids 388–421, palmitic acid at the N-terminus, amidated C-terminus, 3× His tags added to the C-terminal (PFSSVPEIVHHYASRKLPIKGAEHMSLLYPVAIR; palmitic acid at the N-terminus; amidated C-terminus; left off: 3× His tags, C-terminal, kept)
  colony growth: effectively impaired colony growth

Reference: article PMC9475553, “SHF Acts as a Novel Tumor Suppressor in Glioblastoma Multiforme by Disrupting STAT3 Dimerization” (Advanced Science, 2022)
